Reference: the NIST ThermoML archive (doi:10.1016/j.jct.2012.01.022)

Assay: xn = mol fraction of the nth substance listed
Settings: 101 kPa, Liquid; for speed of sound: Sing-around technique in a fixed-path interferometer; for mass density: Vibrating tube method; for viscosity: Capillary tube (Ostwald / Ubbelohde) method

NCCN [ethane-1,2-diamine] + CCCCCCCCCCO
Settings | mass density [kg/m3] | speed of sound [m/s] | viscosity [mPa·s]
293.15 K, x1 = 0.0424 | 831.534 | 1402.1 | –
293.15 K, x1 = 0.1063 | 834.058 | 1408.9 | –
293.15 K, x1 = 0.1512 | 835.766 | 1414.8 | –
293.15 K, x1 = 0.1995 | 837.56 | 1420.8 | –
293.15 K, x1 = 0.2511 | 839.445 | 1427.1 | –
293.15 K, x1 = 0.2957 | 841.022 | 1432.6 | –
293.15 K, x1 = 0.3961 | 844.521 | 1445.5 | –
293.15 K, x1 = 0.4929 | 848.18 | 1459.7 | –
293.15 K, x1 = 0.609 | 853.458 | 1481.8 | –
293.15 K, x1 = 0.6962 | 858.67 | 1504.6 | –
293.15 K, x1 = 0.7975 | 866.833 | 1541.1 | –
293.15 K, x1 = 0.855 | 872.943 | 1570.1 | –
293.15 K, x1 = 0.9054 | 879.622 | 1602.3 | –
293.15 K, x1 = 0.9591 | 888.704 | 1648.1 | –
298.15 K, x1 = 0.0424 | 828.092 | 1384.9 | 10.96
298.15 K, x1 = 0.1063 | 830.545 | 1391.6 | 10.6
298.15 K, x1 = 0.1512 | 832.202 | 1397.5 | 10.36
298.15 K, x1 = 0.1995 | 833.938 | 1403.3 | 9.921
298.15 K, x1 = 0.2511 | 835.76 | 1409.5 | 9.382
298.15 K, x1 = 0.2957 | 837.289 | 1414.9 | 8.821
298.15 K, x1 = 0.3961 | 840.693 | 1427.6 | 7.355
298.15 K, x1 = 0.4929 | 844.262 | 1441.5 | 6.047
298.15 K, x1 = 0.609 | 849.415 | 1463.1 | 4.514
298.15 K, x1 = 0.6962 | 854.51 | 1485.4 | 3.644
298.15 K, x1 = 0.7975 | 862.525 | 1521.3 | 2.699
298.15 K, x1 = 0.855 | 868.535 | 1549.7 | 2.198
298.15 K, x1 = 0.9054 | 875.128 | 1581.4 | 1.874
298.15 K, x1 = 0.9591 | 884.107 | 1626.4 | 1.598
303.15 K, x1 = 0.0424 | 824.641 | 1367.8 | 9.008
303.15 K, x1 = 0.1063 | 827.029 | 1374.7 | 8.713
303.15 K, x1 = 0.1512 | 828.635 | 1380.3 | 8.442
303.15 K, x1 = 0.1995 | 830.31 | 1386.1 | 8.104
303.15 K, x1 = 0.2511 | 832.075 | 1392.1 | 7.658
303.15 K, x1 = 0.2957 | 833.56 | 1397.5 | 7.229
303.15 K, x1 = 0.3961 | 836.868 | 1409.8 | 6.168
303.15 K, x1 = 0.4929 | 840.345 | 1423.5 | 5.062
303.15 K, x1 = 0.609 | 845.37 | 1444.5 | 3.892
303.15 K, x1 = 0.6962 | 850.353 | 1466.5 | 3.107
303.15 K, x1 = 0.7975 | 858.212 | 1501.6 | 2.343
303.15 K, x1 = 0.855 | 864.125 | 1529.5 | 1.985
303.15 K, x1 = 0.9054 | 870.631 | 1560.8 | 1.66
303.15 K, x1 = 0.9591 | 879.506 | 1604.9 | 1.403
308.15 K, x1 = 0.0424 | 821.178 | 1350.9 | 7.295
308.15 K, x1 = 0.1063 | 823.508 | 1358 | 7.087
308.15 K, x1 = 0.1512 | 825.064 | 1363.4 | 6.852
308.15 K, x1 = 0.1995 | 826.684 | 1369.1 | 6.563
308.15 K, x1 = 0.2511 | 828.392 | 1375 | 6.202
308.15 K, x1 = 0.2957 | 829.829 | 1380.3 | 5.881
308.15 K, x1 = 0.3961 | 833.045 | 1392.3 | 5.028
308.15 K, x1 = 0.4929 | 836.429 | 1405.6 | 4.23
308.15 K, x1 = 0.609 | 841.323 | 1426.1 | 3.288
308.15 K, x1 = 0.6962 | 846.189 | 1447.5 | 2.661
308.15 K, x1 = 0.7975 | 853.898 | 1481.9 | 2.032
308.15 K, x1 = 0.855 | 859.714 | 1509.4 | 1.708
308.15 K, x1 = 0.9054 | 866.124 | 1540.1 | 1.485
308.15 K, x1 = 0.9591 | 874.895 | 1583.6 | 1.238
313.15 K, x1 = 0.0424 | 817.698 | 1334.2 | –
313.15 K, x1 = 0.1063 | 819.969 | 1341.6 | –
313.15 K, x1 = 0.1512 | 821.476 | 1346.8 | –
313.15 K, x1 = 0.1995 | 823.045 | 1352.3 | –
313.15 K, x1 = 0.2511 | 824.7 | 1358.1 | –
313.15 K, x1 = 0.2957 | 826.089 | 1363.2 | –
313.15 K, x1 = 0.3961 | 829.21 | 1375 | –
313.15 K, x1 = 0.4929 | 832.502 | 1387.9 | –
313.15 K, x1 = 0.609 | 837.271 | 1407.9 | –
313.15 K, x1 = 0.6962 | 842.017 | 1428.6 | –
313.15 K, x1 = 0.7975 | 849.57 | 1462.5 | –
313.15 K, x1 = 0.855 | 855.287 | 1489.4 | –
313.15 K, x1 = 0.9054 | 861.605 | 1519.8 | –
313.15 K, x1 = 0.9591 | 870.264 | 1562.4 | –

NCCN [ethane-1,2-diamine] + CCCCCCCCO
Settings | mass density [kg/m3] | speed of sound [m/s] | viscosity [mPa·s]
293.15 K, x1 = 0.0595 | 828.135 | 1373.2 | –
293.15 K, x1 = 0.1021 | 830.247 | 1379.6 | –
293.15 K, x1 = 0.143 | 832.248 | 1386.6 | –
293.15 K, x1 = 0.2012 | 835.047 | 1396.5 | –
293.15 K, x1 = 0.2633 | 838.043 | 1407.3 | –
293.15 K, x1 = 0.3122 | 839.349 | 1412.6 | –
293.15 K, x1 = 0.4113 | 844.656 | 1433.8 | –
293.15 K, x1 = 0.4919 | 848.413 | 1450.2 | –
293.15 K, x1 = 0.5973 | 854.134 | 1475.6 | –
293.15 K, x1 = 0.7019 | 861.054 | 1508.3 | –
293.15 K, x1 = 0.7938 | 868.882 | 1546.3 | –
293.15 K, x1 = 0.8436 | 874.136 | 1573.2 | –
293.15 K, x1 = 0.8941 | 881.269 | 1609.4 | –
293.15 K, x1 = 0.9546 | 889.526 | 1651.7 | –
298.15 K, x1 = 0.0595 | 824.621 | 1356.2 | –
298.15 K, x1 = 0.0596 | – | – | 6.934
298.15 K, x1 = 0.1021 | 826.683 | 1362.6 | 6.834
298.15 K, x1 = 0.143 | 828.632 | 1369.4 | 6.713
298.15 K, x1 = 0.2012 | 831.36 | 1379.3 | 6.457
298.15 K, x1 = 0.2633 | 834.276 | 1389.9 | 6.099
298.15 K, x1 = 0.3122 | 835.547 | 1397.8 | 5.734
298.15 K, x1 = 0.4113 | 840.743 | 1415.9 | 4.957
298.15 K, x1 = 0.4919 | 844.426 | 1432 | 4.251
298.15 K, x1 = 0.5973 | 850.038 | 1457.1 | 3.406
298.15 K, x1 = 0.7019 | 856.833 | 1489 | 2.707
298.15 K, x1 = 0.7938 | 864.539 | 1526.5 | 2.214
298.15 K, x1 = 0.8436 | 869.72 | 1551.8 | 1.985
298.15 K, x1 = 0.8941 | 876.764 | 1582.4 | 1.751
298.15 K, x1 = 0.9546 | 884.925 | 1627.9 | 1.54
303.15 K, x1 = 0.0595 | – | 1338.9 | –
303.15 K, x1 = 0.0596 | – | – | 5.792
303.15 K, x1 = 0.1021 | – | 1345.7 | 5.694
303.15 K, x1 = 0.143 | – | 1352.5 | 5.569
303.15 K, x1 = 0.2012 | – | 1362.3 | 5.331
303.15 K, x1 = 0.2633 | – | 1372.1 | 5.041
303.15 K, x1 = 0.3122 | – | 1379.9 | 4.75
303.15 K, x1 = 0.4113 | – | 1398.3 | 4.144
303.15 K, x1 = 0.4919 | – | 1414 | 3.595
303.15 K, x1 = 0.5973 | – | 1438.7 | 2.917
303.15 K, x1 = 0.7019 | – | 1469.9 | 2.395
303.15 K, x1 = 0.7938 | – | 1506.3 | 1.956
303.15 K, x1 = 0.8436 | – | 1530.5 | 1.748
303.15 K, x1 = 0.8941 | – | 1559.9 | 1.532
303.15 K, x1 = 0.9546 | – | 1604.9 | 1.34
308.15 K, x1 = 0.0595 | 817.544 | 1322.8 | –
308.15 K, x1 = 0.0596 | – | – | 4.848
308.15 K, x1 = 0.1021 | 819.514 | 1329 | 4.757
308.15 K, x1 = 0.143 | 821.37 | 1335.8 | 4.662
308.15 K, x1 = 0.2012 | 823.957 | 1345.5 | 4.461
308.15 K, x1 = 0.2633 | 826.723 | 1355.7 | 4.211
308.15 K, x1 = 0.3122 | 827.934 | 1360.7 | 3.975
308.15 K, x1 = 0.4113 | 832.902 | 1380.8 | 3.497
308.15 K, x1 = 0.4919 | 836.434 | 1396.4 | 3.054
308.15 K, x1 = 0.5973 | 841.825 | 1420.5 | 2.515
308.15 K, x1 = 0.7019 | 848.372 | 1451.2 | 2.031
308.15 K, x1 = 0.7938 | 855.829 | 1487.3 | 1.669
308.15 K, x1 = 0.8436 | 860.863 | 1512.4 | 1.5
308.15 K, x1 = 0.8941 | 867.723 | 1546.7 | 1.342
308.15 K, x1 = 0.9546 | 875.69 | 1586.8 | 1.2
313.15 K, x1 = 0.0595 | 813.972 | 1306.6 | –
313.15 K, x1 = 0.1021 | 815.903 | 1313.3 | –
313.15 K, x1 = 0.143 | 817.713 | 1319.7 | –
313.15 K, x1 = 0.2012 | 820.239 | 1329 | –
313.15 K, x1 = 0.2633 | 822.931 | 1339.1 | –
313.15 K, x1 = 0.3122 | 824.111 | 1343.9 | –
313.15 K, x1 = 0.4113 | 828.963 | 1363.5 | –
313.15 K, x1 = 0.4919 | 832.42 | 1378.9 | –
313.15 K, x1 = 0.5973 | 837.701 | 1402.6 | –
313.15 K, x1 = 0.7019 | 844.123 | 1432.8 | –
313.15 K, x1 = 0.7938 | 851.455 | 1468.2 | –
313.15 K, x1 = 0.8436 | 856.411 | 1492.4 | –
313.15 K, x1 = 0.8941 | 863.18 | 1526.1 | –
313.15 K, x1 = 0.9546 | 871.049 | 1565.6 | –
